According to patent publication US7964559B2, “MVL, an antiviral protein from a cyanobacterium” (The United States of America, as represented by the …, priority 2004, dated 2011):
“Also recorded” adds a separate entry of the source. Where two headings read alike, the source gives them in different places.

Experiments:
MVL [1] = target: T1, MVL (Microcystis viridis, UniProt Q9RHG4); format: binding; conditions: for Binding to MVL: Table 1, MVL binding studies
MVL [2] = target: T1, MVL; format: cell-based
MVL [3] = target: T1, MVL; format: binding; conditions: for Stoichiometry: carbohydrates per MVL monomer, 10 mM Tris pH 6.5; for ΔG: ΔG = −RT · lnKA, T = 298 K
[4] = system: M-tropic virus SF162 and a T-tropic virus (LAV); test: Single round HIV-infectivity assay; format: cell-based; conditions: read-out: approximate IC50, HIV infectivity
[5] = system: HIV-1 macrophage tropic (M-tropic) strain SF162; conditions: read-out: IC50, inhibition of Env-mediated fusion
[6] = system: HIV-1 T-cell tropic (T-tropic) strain LAV; conditions: read-out: IC50, inhibition of Env-mediated fusion
[7] = excess carbohydrate, pH 6.85, 27° C.

Molecule: CC(=O)N[C@H]1[C@H](O[C@H]2[C@H](O)[C@@H](NC(C)=O)C(O)O[C@@H]2CO)O[C@H](CO)[C@@H](O)[C@@H]1O (stereo partly shown) [GlcNAcβ(1→4) GlcNAc, GlcNAcβ(1→4)GlcNAc]
- binding to MVL / change of 1H-15N correlation spectra of MVL (MVL [1]; [7]): nor do they bind
- binding to MVL / change of 1H-15N correlation spectra of MVL (MVL [1]; excess carbohydrate, pH 6.85, 27° C., listed as GlcNAc2): identical to that of free MVL

Molecule: Man9GlcNAc2 [oligomannose-9]
- effect of pretreatment of MVL on inhibition of fusion by MVL (MVL [2]; MVL 200 nM, 5-fold excess of carbohydrate): partially reduced inhibition
- Binding to MVL (MVL [1]): 3

Molecule: CC(=O)N[C@H]1[C@H](O[C@H]2[C@H](O)[C@@H](NC(C)=O)C(O)O[C@@H]2CO)O[C@H](CO)[C@@H](O[C@@H]2O[C@H](CO[C@H]3O[C@H](CO)[C@@H](O)[C@H](O)[C@@H]3O)[C@@H](O)[C@H](O)[C@@H]2O)[C@@H]1O (stereo partly shown) [oligomannose-2A, Manα(1→6)Manβ(1→4)GlcNAcβ(1→4)GlcNAc]
- ΔH (MVL [3]; 25° C., pH 6.5): -43.9 ± 0.17 kJ/mol
- Stoichiometry (MVL [3]; one site model, 25° C., listed as Man2A): 2.04 ± 0.05
- Stoichiometry (MVL [3]; one site model, 25° C., listed as Man2GlcNAc2): two
- ΔG (MVL [3]): -31 ± 2.5 kJ/mol
- Binding to MVL (MVL [1]): 3
- binding to MVL / change of 1H-15N correlation spectra of MVL (MVL [1]; [7]): binds with high affinity

Molecule: Man6GlcNAc2 [oligomannose-6]
- ΔH (MVL [3]; 25° C., pH 6.5): -87 ± 0.42 kJ/mol
- Stoichiometry (MVL [3]; one site model, 25° C., listed as Man6): 2.06 ± 0.01
- Stoichiometry (MVL [3]; one site model, 25° C., listed as Man6GlcNAc2): two
- Ka (MVL [3]; equilibrium association constant, one site model, 25° C., pH 6.5): 4.5 (±0.3)×10^6 M^−1
- ΔG (MVL [3]): -37.7 ± 2.5 kJ/mol
- lifetime of the MVL:carbohydrate complex (MVL [1]; (2πΔδ)^−1 from chemical shift differences): > 16 ms
- Binding to MVL (MVL [1]): 3
- binding to MVL / change of 1H-15N correlation spectra of MVL (MVL [1]; [7]): dramatic changes

Molecule: Manα (1→3)[Manα(1→6)]Manβ [Manα(1→3)[Manα(1→6)]Man]
- effect of pretreatment of MVL on inhibition of fusion by MVL (MVL [2]): no effect
- binding to MVL / change of 1H-15N correlation spectra of MVL (MVL [1]; pH 6.85): identical to that of free MVL; also recorded: nor do they bind

Molecule: CC(=O)N[C@H]1[C@H](O[C@H]2[C@H](O)[C@@H](NC(C)=O)C(O)O[C@@H]2CO)O[C@H](CO)[C@@H](O[C@@H]2O[C@H](CO[C@H]3O[C@H](CO[C@H]4O[C@H](CO)[C@@H](O)[C@H](O)[C@@H]4O)[C@@H](O)[C@H](O[C@H]4O[C@H](CO)[C@@H](O)[C@H](O)[C@@H]4O)[C@@H]3O)[C@@H](O)[C@H](O[C@H]3O[C@H](CO)[C@@H](O)[C@H](O)[C@@H]3O)[C@@H]2O)[C@@H]1O (stereo partly shown) [oligomannose-5, Man5GlcNAc2]
- Binding to MVL (MVL [1]): 3

Molecule: CC(=O)N[C@H]1C(O)O[C@H](CO)[C@@H](O[C@@H]2O[C@H](CO)[C@@H](O)[C@H](O)[C@@H]2O)[C@@H]1O (stereo partly shown) [Manβ(1→4)GlcNAc]
- binding to MVL / change of 1H-15N correlation spectra of MVL (MVL [1]; pH 6.85): nor do they bind

B1: MVL: 113 amino acid, 13 kDa carbohydrate binding protein (lectin) from Microcystis viridis NIES-102, SEQ ID NO: 3 (protein, listed as Microcystis viridis)
chain: ASYKVNIPAGPLWSNAEAQQVGPKIAAAHQGNFTGQWTTVVESAMSVVEVELQVENTGIHEFKTDVLAGPLWSNDEAQKLGPQIAASYGAEFTGQWRTIVEGVMSVIQIKYTF
- IC50 [4]: 0.03 to 0.05 µM
- IC50 [5]: 0.037 ± 0.006 µM
- IC50 [6]: 0.03 ± 0.004 µM
